Assays:
[1] = Chronic cytotoxicity against cat FL-4 cells assessed as decrease in cell viability measured after 7 days by MTT assay; type: cell-based, Felis catus
[2] = test system: Feline immunodeficiency virus; assay: Antiviral activity against FIV infected in cat FL-4 cells assessed as reduction in viral RNA level measured after 7 days by qRT-PCR analysis; type: functional, organism-based; conditions: FL-4, 168 h
[3] = Acute cytotoxicity against cat CRFK cells assessed as decrease in cell viability at 10 uM measured after 24 hrs by MTT assay relative to control; type: cell-based, Felis catus
[4] = Therapeutic index, ratio of CC50 for cat FL-4 cells to EC50 for antiviral activity against FIV infected in cat FL-4 cells; type: toxicity, cell-based; conditions: read-out: Ratio CC50/EC50
[5] = Solubility of the compound; type: physicochemical
[6] = Aqueous solubility of the compound; type: physicochemical; conditions: buffer

Compound	CC50 at 168 h [1] [µM]	EC50 [2] [µM]	Activity [3] [%]	selectivity ratio [4]	solubility [5]	solubility [6]
C=CCN1C(=O)[C@]2(Cc3ccccc3)SS[C@H]1C(=O)N2Cc1ccccc1 (racemic)	79	0.89	> 100	88		
O=C1[C@H](S)N(Cc2ccccc2)C(=O)[C@H](S)N1Cc1ccccc1	15	1.8	> 100			
C=CC[C@@]12SS[C@@H](C(=O)N1Cc1ccccc1)N(Cc1ccccc1)C2=O (racemic)	6	0.088	> 100	69		
CN1C(=O)[C@]23CC4=CC=C[C@H](O)[C@H]4N2C(=O)[C@@]1(CO)SS3 [GLIOTOXIN]			6.1			
COC(=O)CCCCCN1C(=O)[C@@H]2SS[C@H]1C(=O)N2Cc1ccccc1 (racemic)	> 10	0.034	> 100	> 300	Soluble	
O=C1[C@@H]2SS[C@@H](C(=O)N2Cc2cccc(Cl)c2)N1Cc1ccccc1 (racemic)	> 100	0.55	> 100	> 184		
O=C1[C@@H]2SS[C@@H](C(=O)N2Cc2cccc3ccccc23)N1Cc1ccccc1 (racemic)	7.2	1.9	> 100	4		
CS[C@H]1C(=O)N(Cc2ccccc2)[C@@H](SC)C(=O)N1Cc1ccccc1 (relative stereo)	> 100	> 100	96			
Cc1nnc(C(=O)NC(C)(C)c2nc(C(=O)NCc3ccc(F)cc3)c(O)c(=O)n2C)o1 [RALTEGRAVIR]	> 100	0.01	> 100	> 10000		
C=CCN1C(=O)[C@@H]2SS[C@H]1C(=O)N2Cc1ccccc1 (racemic)	5.1	2.1	96	2.4		
CN1C(=O)[C@@H]2SS[C@H]1C(=O)N2C (racemic)	> 10	3	77	> 3	Insoluble	
CCOC(=O)CCN1C(=O)[C@@H]2SS[C@H]1C(=O)N2Cc1ccccc1 (racemic)	> 10	0.053	> 100	> 190	Soluble	
Cc1cn([C@H]2C[C@H](N=[N+]=[N-])[C@@H](CO)O2)c(=O)[nH]c1=O [ZIDOVUDINE]	> 100	5.3	> 100			
CCOC(=O)CCCN1C(=O)[C@@H]2SS[C@H]1C(=O)N2Cc1ccccc1 (racemic)	7.5	0.16	> 100	48	Soluble	
COc1ccc(CN2C(=O)[C@@H]3SS[C@H]2C(=O)N3Cc2ccccc2)cc1 (racemic)	5.4	0.41	99			
O=C1[C@@H]2SS[C@@H](C(=O)N2Cc2ccccc2)N1Cc1ccccc1 (racemic)	4.7	3.9 to 4	> 100	1.2		
CN1C(=O)[C@@]23C[C@]4([C@]56C[C@@]78SS[C@@](CO)(C(=O)N7[C@H]5Nc5ccccc56)N(C)C8=O)c5ccccc5N[C@@H]4N2C(=O)[C@]1(CO)SS3 [CHAETOCIN]	0.0035	0.0017	11	2.1		
CC(C)N1C(=O)[C@@H]2SS[C@H]1C(=O)N2Cc1ccccc1 (racemic)	6.5	1.6	50	4		
CN1C(=O)[C@@H]2SS[C@H]1C(=O)N2Cc1ccccc1 (racemic)	> 10	0.91	> 100	> 11		
C=CCN1C(=O)[C@@H]2SS[C@@]1(Cc1ccccc1)C(=O)N2Cc1ccccc1 (racemic)	0.72	0.11	85	6.7		
CCCCN1C(=O)[C@@H]2SS[C@H]1C(=O)N2Cc1ccccc1 (racemic)	> 10	0.63	63	> 16		
C=CCN1C(=O)[C@]2(CC=C)SS[C@@]1(CC=C)C(=O)N2CC=C (racemic)	8.8	0.88	99	10		
CN1C(=O)[C@]2(Cc3ccccc3)SS[C@@]1(CO)C(=O)N2C			74			
C=CCN1C(=O)[C@@H]2SS[C@@]1(CC=C)C(=O)N2Cc1ccccc1 (racemic)	> 100	> 10	> 100			Insoluble

From ChEMBL document CHEMBL4393741, “Novel epidithiodiketopiperazines as anti-viral zinc ejectors of the Feline Immunodeficiency Virus (FIV) nucleocapsid protein as a model for HIV infection” (Bioorg Med Chem, 2019)
